System: PPAR
Assay: PPAR agonist activity / binding to PPAR, tetraethylthiuram disulfide alone or combined
Conditions: tetraethylthiuram disulfide alone

PPAR agonist activity: poor PPAR agonist
Compound: CCN(CC)C(=S)SSC(=S)N(CC)CC [tetraethylthiuram disulfide]

From patent US7449478B2, “Indole compounds” (National Health Research Institutes, priority 2003, dated 2008)
